What was measured:
Mus musculus [1] = species on record: Mus musculus; experiment: Inhibition of Hedgehog signaling pathway in mouse C3H10T1/2 cells assessed as reduction in oxysterol-induced Gli1 mRNA expression at 5 uM after 24 hrs by q-PCR analysis relative to oxysterol alone; assay type: cell-based
[2] = target: T1, Cyp24A1 mRNA (readout of VDR activation) (Mus musculus, UniProt P48281); experiment: Activation of VDR in mouse C3H10T1/2 cells assessed as change in Cyp24A1 mRNA expression at 5 uM after 24 hrs by q-PCR analysis relative to control; assay type: ADME, cell-based; details: read-out: FC
T1 sequence (P48281 whole entry): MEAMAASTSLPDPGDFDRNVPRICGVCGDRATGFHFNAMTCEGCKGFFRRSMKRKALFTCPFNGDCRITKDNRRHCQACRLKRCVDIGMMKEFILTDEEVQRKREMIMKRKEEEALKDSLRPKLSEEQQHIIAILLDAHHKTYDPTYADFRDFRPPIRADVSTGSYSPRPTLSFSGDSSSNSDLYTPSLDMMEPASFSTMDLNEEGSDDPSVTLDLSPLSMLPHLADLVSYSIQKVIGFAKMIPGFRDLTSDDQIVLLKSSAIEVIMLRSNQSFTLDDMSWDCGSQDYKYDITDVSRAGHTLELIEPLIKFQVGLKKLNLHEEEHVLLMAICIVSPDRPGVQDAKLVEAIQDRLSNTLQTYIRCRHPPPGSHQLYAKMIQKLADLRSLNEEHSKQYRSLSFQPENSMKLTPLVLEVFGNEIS

Mus musculus [3] = species on record: Mus musculus; experiment: (§1) Inhibition of Hedgehog signaling pathway in mouse C3H10T1/2 cells assessed as reduction in oxysterol-induced Gli1 mRNA expression after 24 hrs by q-PCR analysis; assay type: cell-based
[4] = as §1; assay type: cell-based; details: C3H 10T1/2, 24 h
[5] = Inhibition of Hedgehog signaling pathway in mouse ASZ001 cells assessed as reduction in oxysterol-induced Gli1 mRNA expression after 24 hrs by q-PCR analysis; assay type: cell-based; details: ASZ001, 24 h
[6] = target: T1, Cyp24A1 mRNA (readout of VDR activation); experiment: Activation of VDR in mouse ASZ001 cells assessed as change in Cyp24A1 mRNA expression at 5 uM after 24 hrs by q-PCR analysis relative to control; assay type: ADME, cell-based; details: read-out: FC

Row | SMILES | fold induction at 24 h, 5 µM [2] | IC50 [4] [µM] | IC50 [5] [µM] | fold induction at 24 h, 5 µM [6] | inhibition (Mus musculus [1]) [%] | inhibition (Mus musculus [3])
1 | CC(C)CCC[C@@H](C)[C@H]1CC[C@H]2[C@@H](OC(=O)c3cccc(O)c3)C[C@H](Cc3ccccc3)C[C@]12C | 3.6 |  |  |  | 85 | 
2 | C=C[C@H]1CC(=O)[C@@H]2CC[C@H]([C@H](C)CCCC(C)C)[C@@]2(C)C1 | 19 |  |  |  | 28 | 
3 | C#CCCC(=O)OCC[C@H]1C[C@H](OC(=O)c2cccc(O)c2)[C@@H]2CC[C@H]([C@H](C)CCCC(C)C)[C@@]2(C)C1 | 4.8 | 6.3 | 7.5 | 0.96 | 16 | Dose-dependent effect
4 | CC(C)CCC[C@@H](C)[C@H]1CC[C@H]2[C@@H](Nc3ccc(O)cc3)C[C@H](CCO)C[C@]12C | 7.2 | 2.7 | 1 | 2 | 1.1 | Dose-dependent effect
5 | CC(C)CCC[C@@H](C)[C@H]1CC[C@H]2[C@@H](OC(=O)c3cccc(O)c3)C[C@H](c3ccccc3)C[C@]12C | 2.3 |  |  |  | 71 | 
6 | CC(C)CCC[C@@H](C)[C@H]1CC[C@H]2[C@@H](O)C[C@H](CCO)C[C@]12C | 17 | 4.7 |  |  | 39 | Dose-dependent effect

The next lines start with results.

Row | fold induction at 24 h, 5 µM [2] | IC50 [4] [µM] | IC50 [5] [µM] | fold induction at 24 h, 5 µM [6] | SMILES | inhibition (Mus musculus [1]) [%] | inhibition (Mus musculus [3])
7 | 9 | 2 | 4.1 | 1.1 | CC(C)CCC[C@@H](C)[C@H]1CC[C@H]2[C@@H](OC(=O)c3cccc(O)c3)C[C@H](CCO)C[C@]12C | 8.7 | Dose-dependent effect
8 | 2.8 |  |  |  | CC(C)CCC[C@@H](C)[C@H]1CC[C@H]2[C@@H](OC(=O)c3cccc(O)c3)C[C@H](C3CCCCC3)C[C@]12C | 92 | 
9 | 3.6 | 0.92 | 5.2 | 1.3 | CC[C@@H]1C[C@H](OC(=O)c2cccc(O)c2)[C@@H]2CC[C@H]([C@H](C)CCCC(C)C)[C@@]2(C)C1 | 2 | Dose-dependent effect

Source: ChEMBL document CHEMBL4052810, “Synthesis and evaluation of vitamin D3 analogues with C-11 modifications as inhibitors of Hedgehog signaling” (Bioorg Med Chem Lett, 2017)
